In the supplement of paper PMC11061612:

Experiments:
Experiment in all cases: combination Emax (second highest fraction inhibited in the dose matrix, 72 h); higher = more inhibition; extreme values may be limits of the assay
[1] = test system: 639-V (Bladder Carcinoma)
In short: (§1)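 After 24 hours at 37°C and 5% CO2 in 1536-well plates, cells in DMEM/F12 or RPMI plus 10% FBS received two-drug dose matrices for 72 hours. Viability came from CellTiter-Glo 2.0 luminescence and was scaled as inhibition, anchored at 0 by vehicle wells and at 1 by blank wells. Combination Emax is taken as the second-highest inhibition in the matrix, and Bliss excess as the observed combination effect less EA + EB − EA·EB, with EA and EB the single-agent effects.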

[2] = test system: SK-OV-3 (Ovarian Carcinoma)
In short: as §1

[3] = test system: SW626 (Colorectal Carcinoma)
In short: as §1

[4] = test system: HCC-15 (Squamous Cell Lung Carcinoma)
In short: as §1

[5] = test system: RT-112 (Bladder Carcinoma)
In short: as §1

NCI-H28 (Mesothelioma) = test system: NCI-H28 (Mesothelioma)
In short: as §1

[6] = test system: LU-139 (Small Cell Lung Carcinoma)
In short: as §1

[7] = test system: Hs-633T (Other Solid Carcinomas)
In short: as §1

Row | Structure (SMILES) | combination Emax [1] | combination Emax [2] | combination Emax [3] | combination Emax [4] | combination Emax [5] | combination Emax (NCI-H28 (Mesothelioma)) | combination Emax [6] | combination Emax [7]
1 | CN(CCO)CC[C@H](CSc1ccccc1)Nc1ccc(S(=O)(=O)NC(=O)c2ccc(N3CCC([C@@H](O)c4ccccc4-c4ccc(Cl)cc4)CC3)cc2)cc1S(=O)(=O)C(F)(F)F [AZD4320] + Cn1cnc2c(F)c(Nc3ccc(Br)cc3Cl)c(C(=O)NOCCO)cc21 [Selumetinib] (first compound max 1 µM, 7x7, partner max 3 µM) | 0.978 | 0.258 | 0.837 | 1 | 0.552 | 0.313 | 0.928 | 0.5
2 | CC1(C)CCC(CN2CCN(c3ccc(C(=O)NS(=O)(=O)c4ccc(NCC5CCOCC5)c([N+](=O)[O-])c4)c(Oc4cnc5[nH]ccc5c4)c3)CC2)=C(c2ccc(Cl)cc2)C1 [Venetoclax] + Cc1cc2ncnn2cc1Nc1ncc2c(n1)n(C1CCOCC1)c(=O)n2C [AZD7648] (first compound max 1 µM, 7x7, partner max 10 µM) | 0.244 | 0.353 | 0.136 | 0.253 | 0.257 | 0.216 | 0.439 | 0.188
3 | Cn1cnc2c(F)c(Nc3ccc(Br)cc3Cl)c(C(=O)NOCCO)cc21 [Selumetinib] + CCN(CCO)CCCOc1ccc2c(Nc3cc(CC(=O)Nc4cccc(F)c4)[nH]n3)ncnc2c1 [AZD2811] (first compound max 10 µM, 7x7, partner max 1 µM) | 0.342 | 0.226 | 0.624 | 0.799 | 0.456 | 0.352 | 0.247 | 0.486
4 | COc1nnc2ccc(N3CCC(c4ccc(OCCN5CCN(C)C(=O)[C@H]5C)cc4)CC3)nn12 [AZD5153] + CCN(CCO)CCCOc1ccc2c(Nc3cc(CC(=O)Nc4cccc(F)c4)[nH]n3)ncnc2c1 [AZD2811] (first compound max 1 µM, 7x7, partner max 1 µM) | 0.681 | 0.376 | 0.735 | 0.74 | 0.357 | 0.518 | 0.903 | 0.746
5 | CC1(C)CCC(CN2CCN(c3ccc(C(=O)NS(=O)(=O)c4ccc(NCC5CCOCC5)c([N+](=O)[O-])c4)c(Oc4cnc5[nH]ccc5c4)c3)CC2)=C(c2ccc(Cl)cc2)C1 [Venetoclax] + C[C@@H]1COCCN1C2=NC(=NC(=C2)C3(CC3)[S@](=N)(=O)C)C4=C5C=CNC5=NC=C4 [AZD6738] (first compound max 1 µM, 7x7, partner max 10 µM) | 0.479 | 0.573 | 0.638 | 0.191 | 0.842 | 0.472 | 0.636 | 0.763
6 | Cc1nc(-c2cn3c(n2)-c2ccc(-c4cnn(C(C)(C)C(N)=O)c4)cc2OCC3)n(C(C)C)n1 [Taselisib] + O=C(Nc1ccc2[nH]nc(-c3ccncc3)c2c1)[C@@H]1CCN(CC(=O)N2CCN(c3ccc(-c4ncccn4)cc3)CC2)C1 [SCH772984] (first compound max 10 µM, 7x7, partner max 5 µM) |  | 0.69 |  |  | 0.802 | 0.589 | 0.154 | 0.834
7 | COc1nnc2ccc(N3CCC(c4ccc(OCCN5CCN(C)C(=O)[C@H]5C)cc4)CC3)nn12 [AZD5153] + C=CCn1c(=O)c2cnc(Nc3ccc(N4CCN(C)CC4)cc3)nc2n1-c1cccc(C(C)(C)O)n1 [AZD1775] (first compound max 1 µM, partner max 1 µM) | 0.714 | 0.506 | 0.75 | 0.674 | 0.661 | 0.508 | 0.89 | 0.798
8 | C=CCn1c(=O)c2cnc(Nc3ccc(N4CCN(C)CC4)cc3)nc2n1-c1cccc(C(C)(C)O)n1 [AZD1775] + CCc1c2c(nc3ccc(O)cc13)-c1cc3c(c(=O)n1C2)COC(=O)[C@]3(O)CC [SN-38] (first compound max 1 µM, partner max 0.3 µM) |  | 0.525 |  |  | 0.985 | 0.551 | 0.849 | 0.868
9 | CC(=O)c1c(C)c2cnc(Nc3ccc(N4CCNCC4)cn3)nc2n(C2CCCC2)c1=O [Palbociclib] + Cn1cnc2c(F)c(Nc3ccc(Br)cc3Cl)c(C(=O)NOCCO)cc21 [Selumetinib] (first compound max 10 µM, 7x7, partner max 10 µM) | 0.259 | 0.237 | 0.531 | 0.547 | 0.427 | 0.379 | 0.282 | 0.599
10 | CS(=O)(=O)CCNCc1ccc(-c2ccc3ncnc(Nc4ccc(OCc5cccc(F)c5)c(Cl)c4)c3c2)o1 [Lapatinib] + NC1(c2ccc(-c3nc4ccn5c(=O)[nH]nc5c4cc3-c3ccccc3)cc2)CCC1 [MK-2206] (first compound max 10 µM, 7x7, partner max 10 µM) |  | 0.658 |  |  | 0.917 | 0.607 | 0.672 | 0.905
11 | CS(=O)(=O)CCNCc1ccc(-c2ccc3ncnc(Nc4ccc(OCc5cccc(F)c5)c(Cl)c4)c3c2)o1 [Lapatinib] + Cn1cnc2c(F)c(Nc3ccc(Br)cc3Cl)c(C(=O)NOCCO)cc21 [Selumetinib] (first compound max 10 µM, 7x7, partner max 10 µM) |  | 0.347 |  |  | 0.486 | 0.412 | 0.161 | 0.478
